According to patent US20100196308A1, “VITAMIN D3 AND ANALOGS THEREOF FOR ALLEVIATING SIDE EFFECTS ASSOCIATED WITH CHEMOTHERAPY” (priority 2009, published 2010):

Columns and labels:
[1] = Viability of myeloid cells by trypan blue exclusion; type: cell-based; conditions: human, 24-hour exposure, RPMI 1640 with 10% fetal calf serum (FIG. 2)
Experimental: Varying doses of 1,25(OH)2D3 were applied to the myeloid cells. A graph of the effects of 1,25(OH)2D3 on myeloid cells is provided as FIG. 2. The viability of the myeloid cells was determined by trypan blue exclusion after a 24-hour exposure to varying doses of 1,25(OH)2D3. For these experiments, 2.5×10^5 cells/mL were incubated with different doses of 1,25(OH)2D3 (0.01 μg/mL, 0.1 μg/mL, 0.5 μg/mL, 0.75 μg/mL, 1 μg/mL, and 10 μg/mL) for 24 hours in RPMI 1640 supplemented with 10% fetal calf serum.

bone marrow progenitors = assay: Bone marrow cultures (colony counts) from chemotherapy-treated chloroleukemic rats
Experimental: To assay the Colony-Forming Activity of bone marrow progenitors and MIAC51 cells, bone marrow cells are obtained as previously described (Jimenez and Yunis, 1988), and are washed with serum free DMEM. Cells are then suspended to a concentration of 1×10^6/mL and layered onto a gradient for centrifugation for 40 minutes at 400 g. The pellet found between the medium and gradient is then carefully aspirated and washed in serum free DMEM two times. Finally, a cell suspension containing 1×10^5 cells/mL is prepared in DMEM supplemented with 10% fetal bovine serum, and incubated in tissue culture plates for 3 hours. The non-adherent cells are aspirated and transferred to semi-solid agar culture plates.
To prepare semi-solid agar medium, powdered MEM is reconstituted in tissue-culture grade water to a concentration of 2×. Agar (0.3%) is then added and the mixture is boiled until the agar is fully dissolved (Perkins and Yunis, 1986). The medium is cooled to 37° C. and essential amino acids which might have been depleted during the boiling process are then added. The semi-solid medium is then distributed onto multi-well clusters, filling one well with tissue culture grade water to avoid further evaporation. At this point, G- or GM-CSF are added following manufacturer's procedure, and the bone marrow cell suspension or MIAC51 cells are added by careful pipetting in order to avoid bubbles. Colonies are counted 7 days later.
Bone marrow cultures were performed on days 22, 25 and 32. On day 32, a complete leukocyte count was performed in all animals and those who were positive for MIAC51 were sacrificed.

[2] = test system: Peripheral circulating progenitor stem cells; assay: Colony formation assay in semi-solid agar medium with GM-CSF and G-CSF; type: cell-based, human; conditions: Group 2: 0.05 μg/mL 1,25(OH)2D3 for 24 hours, no 4-HC; mean ± SD, quadruplicates
Excerpt: Tissue culture grade agar, fetal calf serum (FCS), and powdered Dulbecco's Modified Eagle's Medium (DMEM) were obtained from Invitrogen (Carlsbad, Calif.). Peripheral circulating progenitor stem cells were obtained by venipuncture of the saphenous vein of a healthy donor into sodium heparin vacutainers (Becton, Dickinson and Company, Franklyn Lakes N.J.). The buffy coat was obtained by gradient centrifugation using histopaque 1077 as per manufacturer's instructions. Cells were washed twice with RMPI 1640 supplemented with 10% fetal calf serum (Invitrogen). […] Cells were cultured for 14 days in a 5% CO2 incubator, with 100% humidity at 37° C. At the end of the culture period, colonies (clusters of 50 or more cells) were counted using an inverted microscope by two independent viewers. Peripheral stem cells were randomized into 4 groups at a concentration of 5×10^5 cells/mL in DMEM supplemented with 10% fetal calf serum. Group 1 was an untreated control, group 2 was incubated for 24 hours with 0.05 μg/mL of 1,25(OH)2D3, group 3 was incubated for 24 hours with 0.05 μg/mL of 1,25(OH)2D3, group 4 was untreated. Cells were washed with DMEM 10% fetal calf serum. Groups 3 and 4 were then incubated with 25 μg/mL of 4-HC for 20 hours. Subsequently, all groups were washed twice as previously described. Cells were then plated in semi-solid agar medium as described above.

[3] = Calcium levels in chemotherapy-treated chloroleukemic rats
Excerpt: On days 22, 26, 49 and 53, blood from 3 animals is collected by cardiac puncture. All blood samples are collected in a vial for analysis of calcium levels. All animals used for bone marrow cultures are anesthetized and exsanguinated prior to obtaining the bone marrow.

[4] = test system: Long Evans rats injected with MIAC51; assay: Absolute neutrophil counts in chloroleukemic rats under chemotherapy regimens; conditions: for Nadir ANC without calcitriol treatment: chemotherapy + vehicle
Experimental: For the first cycle of experiments, 15-day old Long Evans rats were injected with MIAC51. […] Starting on day 20 through 32, complete granulocyte counts were then performed by puncturing the tail vein with a 27 gauge syringe while animals were manually restrained.
Neutrophil counts were measured by puncturing the tail vein as described above. […] On day 52, rats were randomized into 3 groups for each chemotherapy regimen.

MIAC51 = conditions: stated in the power analysis of Example 2
Experimental: Sprague Dawley rats (10-day old rat pups, preferably of natural litters) are used in this study. […] Thus, in rats the onset of neutropenia as judged by the nadir of ANC has been well characterized.
To obtain a power of 0.8 and a=0.05 with an absolute difference of 20%, 36 animals per group may be needed. […] According to power analysis, the minimum sample size to achieve statistical significance is 36 animals. Therefore, 4 more animals are added to each group to account for model attrition rate of 10%.

C=C1/C(=C\C=C2/CCC[C@]3(C)[C@@H]([C@H](C)CCCC(C)(C)O)CC[C@@H]23)C[C@@H](O)C[C@@H]1O [calcitriol, 1,25-dihydroxyvitamin D3]
viability at 24 h, 0.05 μg/mL [1]: 90% | colony count of bone marrow cultures (bone marrow progenitors; day 22, first cycle, cyclophosphamide and calcitriol (FIG. 4a)): 56±17 colonies | colony count of bone marrow cultures (bone marrow progenitors; day 25, first cycle, cyclophosphamide and calcitriol (FIG. 5a)): 80±15 colonies | colony count of bone marrow cultures (bone marrow progenitors; day 40 (so in the source), second cycle, cyclophosphamide and calcitriol): 82±25 colonies | colony count of bone marrow cultures (bone marrow progenitors; day 52, second cycle, cyclophosphamide and calcitriol): 86±25 colonies | Colony Counts at 14 Days [2]: 48 ± 6 | hypercalcemia ([3]; rat, in vivo): did not induce hypercalcemia | Nadir ANC with calcitriol treatment ([4]; first cycle, 10 μg calcitriol pulse, cyclophosphamide (150 mg/kg) regimen): 2154 ± 147/mm^3 | Nadir ANC with calcitriol treatment ([4]; first cycle, 10 μg calcitriol pulse, cyclophosphamide and doxorubicin (100 mg/kg, 25 mg/kg) regimen): 2365 ± 145/mm^3 | Nadir ANC with calcitriol treatment ([4]; first cycle, 10 μg calcitriol pulse, cyclophosphamide, doxorubicin and paclitaxel (100, 25, 10 mg/kg) regimen): 2365 ± 125/mm^3 | effect on nadir ANC ([4]; first cycle, all three chemotherapy regimens): significantly decreases the nadir ANC | Nadir ANC with calcitriol treatment ([4]; second cycle, 20 μg calcitriol, cyclophosphamide and doxorubicin regimen): 2417 ± 136/mm^3 | Nadir ANC with calcitriol treatment ([4]; second cycle, 20 μg calcitriol, cyclophosphamide regimen): 2451 ± 235/mm^3 | Nadir ANC with calcitriol treatment ([4]; second cycle, 20 μg calcitriol, cyclophosphamide, doxorubicin and paclitaxel regimen): 2364 ± 136/mm^3 | protection against chemotherapy-induced neutropenia ([4]; second cycle, all three chemotherapy regimens): significantly protects against chemotherapy-induced neutropenia in all three chemotherapy regimens

Cyclophosphamide
colony count of bone marrow cultures (bone marrow progenitors; day 22, first cycle, cyclophosphamide and vehicle): 5±1 colonies | colony count of bone marrow cultures (bone marrow progenitors; day 25, first cycle, cyclophosphamide and vehicle): 12±4 colonies | colony count of bone marrow cultures (bone marrow progenitors; day 40 (so in the source), second cycle, cyclophosphamide and vehicle): 4.5±1 colonies | colony count of bone marrow cultures (bone marrow progenitors; day 52, second cycle, cyclophosphamide-treated): 7±2.5 colonies | Remission rate (MIAC51): at least 20% | Calcium Levels ([3]; Day 22, Chemo + Vehicle): 11 ± 0.3 mg/dL | Calcium Levels ([3]; Day 25, Chemo + Vehicle): 9.5 ± 0.2 mg/dL | Calcium Levels ([3]; Day 32, Chemo + Vehicle): 9.5 ± 0.5 mg/dL | Calcium Levels ([3]; Day 49, Chemo + Vehicle): 11 ± 0.2 mg/dL | Calcium Levels ([3]; Day 52, Chemo + Vehicle): 10 ± 0.5 mg/dL | Calcium Levels ([3]; Day 60, Chemo + Vehicle): 11 ± 0.4 mg/dL | Nadir ANC without calcitriol treatment ([4]; first cycle): 245 ± 25/mm^3 | Nadir ANC without calcitriol treatment ([4]; second cycle): 236 ± 32/mm^3
